Experimental data reported in PubChem BioAssay AID1259407 (Chemical Carcinogenesis Research Information System (CCRIS), 2018).
Activity calls are given as the source filed them. The rule behind the calls is not given here.

Test system: CCRIS mutagenicity, Ames/micronucleus/aberration tests
Test: CCRIS mutagenicity studies
From the text: The CCRIS database contains chemical records with carcinogenicity, mutagenicity, tumor promotion, and tumor inhibition test results. It was developed by the National Cancer Institute (NCI). Data are derived from studies cited in primary journals, current awareness tools, NCI reports, and other sources. Test results have been reviewed by experts in carcinogenesis and mutagenesis.
CCRIS provides historical information from the years 1985 - 2011. It is no longer updated.
This is an archive assay for CCRIS mutagenicity studies.

With `CC(=O)Nc1ccc(Oc2c(Cl)cc(Cl)cc2Cl)cc1` the mutagenic call (Test System: AMES SALMONELLA TYPHIMURIUM, Strain/Indicator: TA98, Metabolic Activation: RAT, LIVER, S-9, AROCLOR 1254, Method: STANDARD PLATE) was “inactive; negative”, the mutagenic call (Test System: AMES SALMONELLA TYPHIMURIUM, Strain/Indicator: TA98, Metabolic Activation: S-9, Method: STANDARD PLATE) was “inactive; negative” and the mutagenic call (Test System: AMES SALMONELLA TYPHIMURIUM, Strain/Indicator: TA100, Metabolic Activation: NONE, Method: STANDARD PLATE) was “inactive; negative”. For the same molecule, the mutagenic call (Test System: AMES SALMONELLA TYPHIMURIUM, Strain/Indicator: TA100, Metabolic Activation: RAT, LIVER, S-9, AROCLOR 1254, Method: STANDARD PLATE) was “active; positive”, the mutagenic call (Test System: AMES SALMONELLA TYPHIMURIUM, Strain/Indicator: TA100, Metabolic Activation: RAT, LIVER, S-9, KANECLOR 500, Method: STANDARD PLATE) was “active; positive” and the mutagenic call (Test System: AMES SALMONELLA TYPHIMURIUM, Strain/Indicator: TA100, Metabolic Activation: S-9, Method: STANDARD PLATE) was “active; positive”. For the same molecule, the mutagenic call (Test System: AMES SALMONELLA TYPHIMURIUM, Strain/Indicator: YG1021, Metabolic Activation: RAT, LIVER, S-9, AROCLOR 1254, Method: STANDARD PLATE) was “inactive; negative”, the mutagenic call (Test System: AMES SALMONELLA TYPHIMURIUM, Strain/Indicator: YG1021, Metabolic Activation: S-9, Method: STANDARD PLATE) was “inactive; negative” and the mutagenic call (Test System: AMES SALMONELLA TYPHIMURIUM, Strain/Indicator: YG1024, Metabolic Activation: RAT, LIVER, S-9, AROCLOR 1254, Method: STANDARD PLATE) was “active; positive”. The mutagenic call (Test System: AMES SALMONELLA TYPHIMURIUM, Strain/Indicator: YG1024, Metabolic Activation: S-9, Method: STANDARD PLATE) was “active; positive”, the mutagenic call (Test System: AMES SALMONELLA TYPHIMURIUM, Strain/Indicator: YG1026, Metabolic Activation: RAT, LIVER, S-9, AROCLOR 1254, Method: STANDARD PLATE) was “active; positive” and the mutagenic call (Test System: AMES SALMONELLA TYPHIMURIUM, Strain/Indicator: YG1026, Metabolic Activation: S-9, Method: STANDARD PLATE) was “active; positive”. The mutagenic call (Test System: AMES SALMONELLA TYPHIMURIUM, Strain/Indicator: YG1029, Metabolic Activation: RAT, LIVER, S-9, AROCLOR 1254, Method: STANDARD PLATE) was “active; positive” and the mutagenic call (Test System: AMES SALMONELLA TYPHIMURIUM, Strain/Indicator: YG1029, Metabolic Activation: S-9, Method: STANDARD PLATE) was “active; positive”.

`O=C(Cc1ccccc1)NC(Cc1ccc(Cl)cc1)C(=O)O` (stereo unspecified) was tested, and the mutagenic call (Test System: AMES SALMONELLA TYPHIMURIUM, Strain/Indicator: TA98, Metabolic Activation: NONE) was “inactive; negative”, the mutagenic call (Test System: AMES SALMONELLA TYPHIMURIUM, Strain/Indicator: TA100, Metabolic Activation: NONE) was “active; positive” and the mutagenic call (Test System: AMES SALMONELLA TYPHIMURIUM, Strain/Indicator: TA1535, Metabolic Activation: NONE) was “inactive; negative”. For the same molecule, the mutagenic call (Test System: AMES SALMONELLA TYPHIMURIUM, Strain/Indicator: TA1537, Metabolic Activation: NONE) was “inactive; negative” and the mutagenic call (Test System: E. COLI, Strain/Indicator: AB2462 UVRA, Metabolic Activation: NONE, Method: SPOT TEST) was “inactive; negative”.

For `COc1ccc(-c2oc3ccccc3c(=O)c2N)cc1N`, the mutagenic call (Test System: AMES SALMONELLA TYPHIMURIUM, Strain/Indicator: TA100, Metabolic Activation: RAT LIVER S-9, AROCLOR 1254, Method: STANDARD PLATE) was “active; positive” and the mutagenic call (Test System: AMES SALMONELLA TYPHIMURIUM, Strain/Indicator: YG1042, Metabolic Activation: RAT LIVER S-9, AROCLOR 1254, Method: STANDARD PLATE) was “active; positive”.

In the case of `CCN(CC)CC(O)CNc1c2ccc([N+](=O)[O-])cc2nc2cc(OC)c(OC)cc12` (stereo unspecified), the mutagenic call (Test System: Escherichia coli, Strain/Indicator: CC107 (G6 to B7 frameshifts), Metabolic Activation: None, Method: Modified preincubation) was “active; positive”, the mutagenic call (Test System: Escherichia coli, Strain/Indicator: CC108 (G6 to G5 frameshifts), Metabolic Activation: None, Method: Modified preincubation) was “active; positive” and the mutagenic call (Test System: Escherichia coli, Strain/Indicator: CC109 (CG5 to CG4 frameshifts), Metabolic Activation: None, Method: Modified preincubation) was “active; positive”. The mutagenic call (Test System: Escherichia coli, Strain/Indicator: CC111 (A7 to A6 frameshifts), Metabolic Activation: None, Method: Modified preincubation) was “inactive; negative”.

With `O=Cc1ccc([N+](=O)[O-])cc1[N+](=O)[O-]` the mutagenic call (Test System: AMES SALMONELLA TYPHIMURIUM, Strain/Indicator: TA98(1,8-DNP6), Metabolic Activation: NONE, Method: SUSPENSION/PLATE) was “active; positive”, the mutagenic call (Test System: AMES SALMONELLA TYPHIMURIUM, Strain/Indicator: TA98(NR), Metabolic Activation: NONE, Method: SUSPENSION/PLATE) was “active; positive” and the mutagenic call (Test System: AMES SALMONELLA TYPHIMURIUM, Strain/Indicator: TA98, Metabolic Activation: NONE, Method: PREINCUBATION) was “active; positive”. For the same molecule, the mutagenic call (Test System: AMES SALMONELLA TYPHIMURIUM, Strain/Indicator: TA98, Metabolic Activation: NONE, Method: SUSPENSION/PLATE) was “active; positive”, the mutagenic call (Test System: AMES SALMONELLA TYPHIMURIUM, Strain/Indicator: TA98, Metabolic Activation: RAT, LIVER, S-9, PHENOBARBITAL AND 5,6-BENZOFLAVONE, Method: PREINCUBATION) was “active; positive” and the mutagenic call (Test System: AMES SALMONELLA TYPHIMURIUM, Strain/Indicator: TA100(1,8-DNP6), Metabolic Activation: NONE, Method: SUSPENSION/PLATE) was “active; positive”. For the same molecule, the mutagenic call (Test System: AMES SALMONELLA TYPHIMURIUM, Strain/Indicator: TA100(NR), Metabolic Activation: NONE, Method: SUSPENSION/PLATE) was “active; positive”, the mutagenic call (Test System: AMES SALMONELLA TYPHIMURIUM, Strain/Indicator: TA100, Metabolic Activation: NONE, Method: PREINCUBATION) was “active; positive” and the mutagenic call (Test System: AMES SALMONELLA TYPHIMURIUM, Strain/Indicator: TA100, Metabolic Activation: NONE, Method: SUSPENSION/PLATE) was “active; positive”. The mutagenic call (Test System: AMES SALMONELLA TYPHIMURIUM, Strain/Indicator: TA100, Metabolic Activation: RAT, LIVER, S-9, PHENOBARBITAL AND 5,6-BENZOFLAVONE, Method: PREINCUBATION) was “active; positive”.

In the case of `CC1(C)SC2[C@H](NC(=O)C(N)c3ccccc3)C(=O)N2[C@H]1C(=O)O.[Cl][Pt].[H+]` (stereo partly specified), the mutagenic call (Test System: MOUSE LYMPHOMA, Strain/Indicator: L5178Y(LY-R) (HGPRT)/6-THIOGUANINE, Metabolic Activation: NONE) was “inactive; negative”.
